From ChEMBL document CHEMBL1151553, “Two novel amino acid derivatives containing side-chain thioamides for the synthesis of photoactivatable peptides” (Bioorg Med Chem Lett, 1997)
Numbered stars: 1 amine (or outer) side, 2 acyl side, 3 side chain; on linkers, the order of the positions; unused ones are H or OH. Square brackets hold non-standard residues; d marks the D form. Peptide text beside a SMILES is read from it. X2 = O=C([C@@H](Cc1ccc(NC(=S)Cc2ccccc2)cc1)N[*:1])[*:2]; X1 = O=C([C@@H](Cc1ccc(NC(=S)c2ccccc2)cc1)N[*:1])[*:2]; hCys = N[C@@H](CCS)C(=O)O

Target: T1, Substance-K receptor (Homo sapiens, UniProt P21452)
T1 sequence (P21452 whole entry): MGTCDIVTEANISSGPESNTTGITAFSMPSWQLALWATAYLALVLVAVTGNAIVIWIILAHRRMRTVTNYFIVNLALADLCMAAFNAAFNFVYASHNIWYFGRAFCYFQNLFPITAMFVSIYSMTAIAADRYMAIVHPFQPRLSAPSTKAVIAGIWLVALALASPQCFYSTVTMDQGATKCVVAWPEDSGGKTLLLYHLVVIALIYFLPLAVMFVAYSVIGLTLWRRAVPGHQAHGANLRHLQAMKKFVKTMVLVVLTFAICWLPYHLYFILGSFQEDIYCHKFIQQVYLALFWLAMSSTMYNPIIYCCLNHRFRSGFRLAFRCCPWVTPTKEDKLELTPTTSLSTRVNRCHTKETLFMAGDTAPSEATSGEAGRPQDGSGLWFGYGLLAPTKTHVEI
Test: Tested for the binding affinity to human NK2 receptor expressed in Sf-9 insect larval cells using 0.1 nM 2-[125 I] iodohistidyl neurokinin A
Assay type: functional

IC50	Compound
0.00772 µM	CC(C)C[C@H](NC(=O)CNC(=O)[C@@H](NC(=O)[C@H](Cc1ccccc1)NC(=O)[C@H](CO)NC(=O)[C@H](CC(=O)O)NC(=O)[C@@H](NC(=O)[C@H](CCCCN)NC(=O)[C@@H](Cc1ccc(NC(=S)c2ccccc2)cc1)NC(=O)[C@@H](N)Cc1c[nH]cn1)[C@@H](C)O)C(C)C)C(=O)N[C@@H](CCS)C(N)=O (H-H[X1]KTDSFVGL[hCys]-NH2)
0.0534 µM	CC(C)C[C@H](NC(=O)CNC(=O)[C@@H](NC(=O)[C@H](Cc1ccccc1)NC(=O)[C@H](CO)NC(=O)[C@H](CC(=O)O)NC(=O)[C@@H](NC(=O)[C@H](CCCCN)NC(=O)[C@@H](Cc1ccc(NC(=S)Cc2ccccc2)cc1)NC(=O)[C@@H](N)Cc1ccc(O)cc1)[C@@H](C)O)C(C)C)C(=O)N[C@@H](CCS)C(N)=O (H-Y[X2]KTDSFVGL[hCys]-NH2)
